# Legend:
# Format in all cases: in vivo
# [1] = system: Abutilon theophrasti (ABUTH); experiment: Pre-emergence herbicidal glasshouse test (Table B1); conditions: evaluated after 13 days
# Procedure, shortened: (§1)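 In this pot assay, seedlings or sown soil receive a spray of formulated active ingredient (acetone/water 50:50, 0.5% Tween 20) at 500 g/h unless indicated. Conditions: 24/16° C day/night, 14 hours light, 65% humidity, watering twice daily. Injury is scored after 13 days, 1 (0-19%) to 5 (80-100%).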
# [2] = system: Echinochloa crus-galh (ECHCG); experiment: as above; conditions: evaluated after 13 days
# Procedure, shortened: as §1
# Setaria faberi (SETFA) [3] = experiment: as above; conditions: evaluated after 13 days
# Procedure, shortened: as §1
# [4] = system: Amaranthus retoflexus (AMARE); experiment: as above; conditions: evaluated after 13 days
# Procedure, shortened: as §1
# [5] = system: Ipomoea hederacea (IPOHE); experiment: as above; conditions: evaluated after 13 days
# Procedure, shortened: as §1
# [6] = system: Abutilon theophrasti (ABUTH); experiment: Post-emergence herbicidal glasshouse test (Table B1); conditions: evaluated after 13 days
# Procedure, shortened: as §1
# [7] = system: Echinochloa crus-galh (ECHCG); experiment: as above; conditions: evaluated after 13 days
# Procedure, shortened: as §1
# Setaria faberi (SETFA) [8] = experiment: as above; conditions: evaluated after 13 days
# Procedure, shortened: as §1
# [9] = system: Amaranthus retoflexus (AMARE); experiment: as above; conditions: evaluated after 13 days
# Procedure, shortened: as §1
# [10] = system: Ipomoea hederacea (IPOHE); experiment: as above; conditions: evaluated after 13 days
# Procedure, shortened: as §1
# BROTE (Bromus tectorum) = experiment: Comparative test, PRE application (Table B2); conditions: evaluated after 14 days
# Method: (§2) TABLE B2—COMPARATIVE TEST
# (§3) Seeds of test species were sown in standard soil in pots. After cultivation for one day under controlled conditions in a glasshouse (at 24/16° C., day/night; 14 hours light; 65% humidity), the plants were sprayed with an aqueous spray solution derived from the formulation of the technical active ingredient in 0.6 ml acetone and 45 ml formulation solution containing 10.6% Emulsogen EL (Registry number 61791-12-6), 42.2% N-methyl pyrrolidone, 42.2% dipropylene glycol monomethyl ether (CAS RN 34590-94-8) and 0.2% X-77 (CAS RN 11097-66-8). The test plants were then grown in a glasshouse under controlled conditions in a glasshouse (at 24/16° C., day/night; 14 hours light; 65% humidity) and watered twice daily. After 14 days, the test was evaluated (100=total damage to plant; 0=no damage to plant).
# (§4) Test species: ABUTH (Abutilon theophrasti); BRO′I′L (Bromus tectorum); ECHCG (Echinochloa crus-galli); SINAR (Sinapis arvensis).
# SINAR (Sinapis arvensis) = experiment: Comparative test, PRE application (Table B2); conditions: evaluated after 14 days
# Method: as §2, §3, §4
# [11] = system: ABUTH (Abutilon theophrasti); experiment: Comparative test, PRE application (Table B2); conditions: evaluated after 14 days
# Method: as §2, §3, §4
# [12] = system: ECHCG (Echinochloa crus-galli); experiment: Comparative test, PRE application (Table B2); conditions: evaluated after 14 days
# Method: as §2, §3, §4
SMILES,damage to plant BROTE (100=total damage to plant; 0=no damage to plant) (BROTE (Bromus tectorum); 30 g/ha),damage to plant BROTE (100=total damage to plant; 0=no damage to plant) (BROTE (Bromus tectorum); 130 g/ha),damage to plant BROTE (100=total damage to plant; 0=no damage to plant) (BROTE (Bromus tectorum); 250 g/ha),damage to plant SINAR (100=total damage to plant; 0=no damage to plant) (SINAR (Sinapis arvensis); 30 g/ha),damage to plant SINAR (100=total damage to plant; 0=no damage to plant) (SINAR (Sinapis arvensis); 130 g/ha),damage to plant SINAR (100=total damage to plant; 0=no damage to plant) (SINAR (Sinapis arvensis); 250 g/ha),damage to plant ABUTH (100=total damage to plant; 0=no damage to plant) ([11]; 30 g/ha),damage to plant ABUTH (100=total damage to plant; 0=no damage to plant) ([11]; 130 g/ha),damage to plant ABUTH (100=total damage to plant; 0=no damage to plant) ([11]; 250 g/ha),damage to plant ECHCG (100=total damage to plant; 0=no damage to plant) ([12]; 30 g/ha),damage to plant ECHCG (100=total damage to plant; 0=no damage to plant) ([12]; 130 g/ha),damage to plant ECHCG (100=total damage to plant; 0=no damage to plant) ([12]; 250 g/ha),further results
CC(=O)Nc1c(OC(F)(F)F)ccc(C(=O)Nc2nnnn2C)c1Cl [Compound 1.002],0,10,70,10,30,80,0,10,80,20,30,80,"PRE Application ABUTH, percentage damage on five-point scale ([1]; applied at 500 g/h): 5 (5=80-100%); PRE Application ECHCG, percentage damage on five-point scale ([2]; applied at 500 g/h): 5 (5=80-100%); PRE Application SETFA, percentage damage on five-point scale (Setaria faberi (SETFA) [3]; applied at 500 g/h): 2 (2=20-39%); PRE Application AMARE, percentage damage on five-point scale ([4]; applied at 500 g/h): 5 (5=80-100%); PRE Application IPOHE, percentage damage on five-point scale ([5]; applied): 1 (1=0-19%); POST Application ABUTH, percentage damage on five-point scale ([6]; applied at 500 g/h): 5 (5=80-100%); POST Application ECHCG, percentage damage on five-point scale ([7]; applied at 500 g/h): 5 (5=80-100%); POST Application SETFA, percentage damage on five-point scale (Setaria faberi (SETFA) [8]; applied at 500 g/h): 5 (5=80-100%); POST Application AMARE, percentage damage on five-point scale ([9]; applied at 500 g/h): 5 (5=80-100%); POST Application IPOHE, percentage damage on five-point scale ([10]; applied at 500 g/h): 5 (5=80-100%)"
"Cn1nnnc1NC(=O)c1ccc(OC(F)(F)F)c(NC(=O)c2ccccn2)c1Cl [Compound 1.012, N-[2-chloro-3-[(1-methyltetrazol-5-yl)carbamoyl]-6-(trifluoromethoxy)phenyl]pyridine-2-carboxamide]",0,0,70,0,70,80,0,0,10,10,30,30,"PRE Application ABUTH, percentage damage on five-point scale ([1]; applied at 125 g/ha): 5 (5=80-100%); PRE Application ECHCG, percentage damage on five-point scale ([2]; applied at 125 g/ha): 5 (5=80-100%); PRE Application SETFA, percentage damage on five-point scale (Setaria faberi (SETFA) [3]; applied at 125 g/ha): 5 (5=80-100%); PRE Application AMARE, percentage damage on five-point scale ([4]; applied at 125 g/ha): 5 (5=80-100%); PRE Application IPOHE, percentage damage on five-point scale ([5]; applied at 125 g/ha): 4 (4=60-79%); POST Application ABUTH, percentage damage on five-point scale ([6]; applied at 125 g/ha): 4 (4=60-79%); POST Application ECHCG, percentage damage on five-point scale ([7]; applied at 125 g/ha): 3 (3=40-59%); POST Application SETFA, percentage damage on five-point scale (Setaria faberi (SETFA) [8]; applied at 125 g/ha): 4 (4=60-79%); POST Application AMARE, percentage damage on five-point scale ([9]; applied at 125 g/ha): 4 (4=60-79%); POST Application IPOHE, percentage damage on five-point scale ([10]; applied at 125 g/ha): 4 (4=60-79%)"

# From US20230219904A1 (SYNGENTA CROP PROTECTION AG, priority 2020, published 2023)
